Laboratory results published in publication PMC5067704 (ACS Infectious Diseases, 2016).
Converted amounts (≈) assume the structure as drawn. Where two headings read alike, the source gives them in different places.

Key:
E. coli ATCC 25922 = assay: MIC determination, E. coli ATCC 25922 (wild type); type: cell-based, Escherichia coli; conditions: for MIC: Escherichia coli
E. coli clin isol [1] = assay: MIC determination, E. coli clinical isolate (first column); type: cell-based; conditions: Escherichia coli, n = 4
E. coli clin isol [2] = assay: MIC determination, E. coli clinical isolate (second column); type: cell-based; conditions: Escherichia coli, n = 4
E. coli MB4827 = assay: MIC determination, E. coli MB4827; type: cell-based; conditions: Escherichia coli, n = 4
E. coli DC2 mutant = assay: microbe, parasite or virus in culture; type: cell-based; conditions: Escherichia coli, DC2MUTANT, read-out: MIC E. coli DC2 mutant
E. coli tolC mutant = assay: microbe, parasite or virus in culture; type: cell-based, Escherichia coli; conditions: for MIC: Escherichia coli, read-out: MIC E. coli tolC mutant
E. coli lpxC/tolC mutant = assay: microbe, parasite or virus in culture; type: cell-based; conditions: Escherichia coli, read-out: MIC E. coli lpxC/tolC mutant
S. aureus ATCC 25923 = assay: MIC determination, S. aureus ATCC 25923; type: cell-based; conditions: Staphylococcus aureus
[3] = system: membrane-impaired mutant E. coli (LpxC and DC2); assay: microbe, parasite or virus in culture; conditions: Escherichia coli, read-out: MIC membrane-impaired mutant E. coli (LpxC and DC2)
[4] = Cytotoxicity assay (resazurin), HEK 293; type: cell-based; conditions: human, HEK293 cells, 20 h incubation, highest concentration 60 μM
[5] = Cytotoxicity assay (resazurin), HepG2; type: cell-based; conditions: human, HepG2 cells, 20 h incubation, highest concentration 60 μM
[6] = molecular target: T1, E. coli dihydrofolate reductase (eDHFR) (Escherichia coli, UniProt P0ABQ4); assay: DHFR enzyme inhibition assay; type: biochemical
T1 construct: host or cells: cell-free (PURExpress in vitro protein synthesis)

E. coli lpxC mutant = assay: microbe, parasite or virus in culture; type: cell-based; conditions: Escherichia coli, read-out: MIC E. coli lpxC mutant
E. coli (ATCC 25922) = assay: LC-MS/MS bacterial accumulation assay, wild type E. coli; type: cell-based, Escherichia coli; conditions: example of the calculation; strain and dose not stated
[7] = ATCC25922, wild type, n = 4, read-out: MIC E. coli ATCC 25922
[8] = ATCC25923, n = 4, read-out: MIC S. aureus ATCC 25923

T1 sequence (P0ABQ4 whole entry): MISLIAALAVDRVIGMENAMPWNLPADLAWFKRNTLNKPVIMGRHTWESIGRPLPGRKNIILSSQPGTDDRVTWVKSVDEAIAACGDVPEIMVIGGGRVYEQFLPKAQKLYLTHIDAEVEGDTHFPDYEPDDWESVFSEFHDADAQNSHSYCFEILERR

SMILES | MIC (E. coli ATCC 25922; [7]) [µg/mL] | MIC (E. coli clin isol [1]) [µg/mL] | MIC (E. coli clin isol [2]) [µg/mL] | MIC (E. coli MB4827) [µg/mL] | MIC (E. coli DC2 mutant) [µg/mL] | MIC (E. coli tolC mutant) [µg/mL] | MIC (E. coli lpxC/tolC mutant) [µg/mL] | MIC (S. aureus ATCC 25923; [8]) [µg/mL] | MIC [3] [µg/mL] | CC50 at 20 h [4] [µM] | CC50 at 20 h [5] [µM] | IC50 [6] [µM] | MIC (E. coli lpxC mutant) [µg/mL] | MIC (E. coli ATCC 25922; ATCC25922, molar equivalent of the μg/mL value, read-out: MIC E. coli ATCC 25922, in μM) [µM] | MIC E. coli ΔtolC (E. coli tolC mutant; molar equivalent of the μg/mL value) [µM] | MIC (S. aureus ATCC 25923; ATCC25923, molar equivalent of the μg/mL value, read-out: MIC S. aureus ATCC 25923, in μM) [µM] | measured concentration using LC-MS/MS (lysate) (E. coli (ATCC 25922)) [µM] | antimicrobial activity, fold less active than TMP (E. coli ATCC 25922; E. coli strains of Table 1)
COc1cc(Cc2cnc(N)nc2N)cc(OC)c1OC [TMP, trimethoprim, reference compound] | 0.5 | 0.5 (≈ 1.72 µM) | 0.5 (≈ 1.72 µM) | 1 (≈ 3.44 µM) | 0.25 (≈ 0.861 µM) | 0.125 (≈ 0.431 µM) | 0.125 (≈ 0.431 µM) | 1 | 0.25 to 0.5 (≈ 0.861 to 1.72 µM) | – | – | – | – | – | – | – | – | –
COc1cc(Cc2cnc(N)nc2N)cc(OC)c1OCCCCN=[N+]=[N-] [8b] | 32 | 8 (≈ 21.4 µM) | 16 (≈ 42.8 µM) | 16 (≈ 42.8 µM) | 8 (≈ 21.4 µM) | 0.125 (≈ 0.335 µM) | 0.25 (≈ 0.669 µM) | 4 | – | > 60 | > 60 | 0.097 | – | – | – | – | – | –
COc1cc(Cc2cnc(N)nc2N)cc(OC)c1OCCCCn1cc(CNC(=O)Cc2cc(=O)oc3cc(N(C)C)ccc23)nn1 [compound 13b] | > 64 | > 64 | > 64 | > 64 | > 64 | 2 (≈ 3.04 µM) | 2 (≈ 3.04 µM) | > 64 | – | > 60 | > 60 | 0.162 | > 64 | – | – | – | – | –
COc1cc(Cc2cnc(N)nc2N)cc(OC)c1OCCCCn1cc(CNS(=O)(=O)c2cccc3c(N(C)C)cccc23)nn1 [compound 14b] | > 64 | > 64 | > 64 | > 64 | > 64 | 0.5 (≈ 0.756 µM) | 1 (≈ 1.51 µM) | 64 | – | 59 | > 60 | 0.226 | > 64 | – | – | – | – | –
COc1cc(Cc2cnc(N)nc2N)cc(OC)c1OCCCCn1cc(CNc2ccc([N+](=O)[O-])c3nonc23)nn1 [compound 12b] | – | > 64 | > 64 | > 64 | > 64 | 0.25 (≈ 0.423 µM) | 0.5 (≈ 0.845 µM) | – | – | > 60 | > 60 | 0.148 | > 64 | 24 | 0.37 | > 94 | 7.122 | –
COc1cc(Cc2cnc(N)nc2N)cc(OC)c1OCCCCCn1cc(CNS(=O)(=O)c2cccc3c(N(C)C)cccc23)nn1 [compound 14c] | > 64 | > 64 | > 64 | > 64 | > 64 | 0.25 (≈ 0.37 µM) | 0.25 (≈ 0.37 µM) | 32 | – | 32 | 51 | 0.509 | > 64 | – | – | – | – | –
COc1cc(Cc2cnc(N)nc2N)cc(OC)c1OCCCCCn1cc(CNc2ccc([N+](=O)[O-])c3nonc23)nn1 [compound 12c] | > 64 | > 64 | > 64 | > 64 | > 64 | 0.5 (≈ 0.826 µM) | 0.5 (≈ 0.826 µM) | 8 | – | 46 | > 60 | 0.208 | > 64 | – | – | – | – | –
COc1cc(Cc2cnc(N)nc2N)cc(OC)c1OCCCCCn1cc(CNC(=O)Cc2cc(=O)oc3cc(N(C)C)ccc23)nn1 [compound 13c] | > 64 | > 64 | > 64 | > 64 | > 64 | 1 (≈ 1.49 µM) | 1 (≈ 1.49 µM) | > 64 | – | > 60 | > 60 | 0.668 | > 64 | – | – | – | – | –
COc1cc(Cc2cnc(N)nc2N)cc(OC)c1OCCCN=[N+]=[N-] [8a] | 8 | 8 (≈ 22.3 µM) | 4 (≈ 11.1 µM) | 8 (≈ 22.3 µM) | 4 (≈ 11.1 µM) | 0.25 (≈ 0.696 µM) | 0.25 (≈ 0.696 µM) | 4 | – | > 60 | > 60 | 0.066 | – | – | – | – | – | 8–16 fold
COc1cc(Cc2cnc(N)nc2N)cc(OC)c1OCCCn1cc(CNc2ccc([N+](=O)[O-])c3nonc23)nn1 [12a] | > 64 | > 64 | > 64 | > 64 | > 64 | 2 (≈ 3.46 µM) | 1 (≈ 1.73 µM) | 64 | – | > 60 | > 60 | 0.254 | > 64 | – | – | – | – | –
COc1cc(Cc2cnc(N)nc2N)cc(OC)c1OCCCCCN=[N+]=[N-] [8c] | 32 | 16 (≈ 41.3 µM) | 16 (≈ 41.3 µM) | 32 (≈ 82.6 µM) | 8 (≈ 20.6 µM) | 0.125 (≈ 0.323 µM) | 0.25 (≈ 0.645 µM) | 4 | – | > 60 | > 60 | 0.14 | 8 (≈ 20.6 µM) | – | – | – | – | –
COc1cc(Cc2cnc(N)nc2N)cc(OC)c1OCCCn1cc(CNC(=O)Cc2cc(=O)oc3cc(N(C)C)ccc23)nn1 [13a] | > 64 | > 64 | > 64 | > 64 | > 64 | 8 (≈ 12.4 µM) | 8 (≈ 12.4 µM) | > 64 | – | > 60 | > 60 | 0.083 | > 64 | – | – | – | – | –
COc1cc(Cc2cnc(N)nc2N)cc(OC)c1OCCCn1cc(CNS(=O)(=O)c2cccc3c(N(C)C)cccc23)nn1 [compound 14a] | > 64 | > 64 | > 64 | > 64 | > 64 | 0.5 (≈ 0.772 µM) | 0.5 (≈ 0.772 µM) | > 64 | – | 59 | > 60 | 0.162 | > 64 | – | – | – | – | –
